{"source": "patent US8329685B1", "about": "“Enhancement of the action of anti-infective agents and of central and peripheral nervous system agents and transportation of nucleic acid substances” (priority 2001, dated 2012)", "key": {"[1]": {"tested_on": "Plasmodium Falciparum drug resistant reference strain W2", "test": "Growth of malaria parasites in human erythrocyte cultures (% parasitaemia, Giemsa smears)", "type": "cell-based", "text": "The specific parasite investigated was the reference drug resistant strain W2 of the species Plasmodium Falciparum. Plasmodium Falciparum is the most commonly occurring as well as the most virulent malaria parasite currently known in man.\nThe system used in this investigation aims to mimic the live situation as closely as possible. For that reason, the parasites were infected into fresh primary erythrocytes isolated from O+ or A+ blood donors.\nFurthermore, human serum prepared from the same donors was used as an adjuvant instead of foetal calf serum. Parasite growth was maintained by the addition of freshly prepared erythrocytes from the same donors.\nThe growth of the parasites was determined by visualization of the parasite DNA on thin smears of the infected cultures. Since mature erythrocytes contain no nucleus, and therefore no DNA, the only DNA present was of parasitic origin. Only intracellular parasites were included in determining the percentage parasitaemia, as extracellular parasites are no longer viable.\nA. Culturing of Malaria Parasites: • 1. Preparation of fresh human erythrocytes • 2. Preparation of human serum from the same donor. • 3. Quality control of human serum. • 4. Infection of erythrocyte cultures with parasites. Initial infection load was 0.5% parasitaemia. • 5. Maintenance of parasite blood cultures • 6. The parasite percentage in the blood cultures was determined after 36 or 48 hours, depending on the level of infection of the freshly added erythrocytes.\nA stock solution of 10 mM chloroquine solution in a 1:250 dilution of nanolipid formulation was made by vortexing and sonication. All concurrent dilutions were from this stock.\nD Drug Delivery by MZL Nanolipid Formulations: • 1 Penetrance of nanolipid formulations in red blood cells was determined by microscopic visualization, as were the penetrance of chloroquine-carrying nanolipid formulations. • 2. […] Typically 48-well plates or 96-well plates were used. 200 ul or 100 ul total culture volumes were used respectively, of which 90% of the volume was infected erythrocyte culture. 10% volume was used for the treatment, be it chloroquine in Nanolipid formulation, chloroquine in water, or for the controls 1:250 pure Nanolipid formulation, pure culturing media or water only. • 4. All series were in duplicate.\nParasitic DNA was visualised by Giemsa staining of thin smears. Ethidium bromide or acridine orange may be used for fluorescent staining.\nThe % infection after applicable incubation periods was determined as follows: […]"}, "[2]": {"tested_on": "Plasmodium Falciparum drug resistant reference strain W2", "settings": "read-out: 50% Inhibition concentration value (IC50); free Chloroquine; known value of strain W2; cited from earlier work"}, "[3]": {"settings": "human, in vivo"}, "[4]": {"tested_on": "S. Aureus and P. Aeruginosa", "test": "Zone of inhibition study of Povidone iodine", "type": "cell-based", "settings": "formulated with the nanolipid vesicles of Preparation 2; 6.30 g Povidone iodine in 100 g; FIG. 2"}, "M. tuberculosis H37Rv": {"tested_on": "M. tuberculosis H37Rv", "test": "BACTEC growth index with Ethambutol with and without MZL", "type": "cell-based, Mycobacterium tuberculosis", "settings": "for inhibition at 0.0325 µg/mL: 0.0325 μg/ml Ethambutol; for inhibition at 0.0625 µg/mL: 0.0625 μg/ml Ethambutol; for inhibition at 0.125 µg/mL: 0.125 μg/ml Ethambutol; for inhibition at 0.25 µg/mL: 0.25 μg/ml Ethambutol; for inhibition at 0.5 µg/mL: 0.5 μg/ml Ethambutol; for inhibition at 1 µg/mL: 1.0 μg/ml Ethambutol"}, "[5]": {"tested_on": "BCG (Bacillus of Calmette and Guerin)", "settings": "after a two-hour incubation; free drug"}, "[6]": {"settings": "20° C. and 2 atm pressure; cited from earlier work"}, "[7]": {"tested_on": "HIV subtype D viruses in CD4 helper T-cells (CEM-SS cell line)", "test": "HIV viral load (p24 core antigen ELISA) in infected CD4 helper T-cells", "type": "cell-based, HIV-1", "procedure": "The following protocols were followed in this investigation: • a) Several cultures of CD4 helper T-cells (CEM-SS cell line; NIH AIDS Research and Reference Reagent Program) were infected with HIV subtype D viruses at applicable cell seeding densities and viral loads. Cells were maintained in tissue culture under standard culturing conditions. • b) The viral load in cultured cells were determined every day for 7 consecutive days after infection by measuring the p24 core antigen of HIV-1 in the supernatant culturing fluid by ELISA. This assay is based on a colour change after addition of substrate that is proportionate to the viral replication in each culture. The colour change is monitored by absorbance spectrophotometry at 450 nm. Negative control absorbance readings were used to calculate the absorbance/cut-off for each culture. • c) Determination of the optimal concentration of nanolipid-vesicle containing base formulation was done by cytotoxicity assays and cell growth curves. The cytotoxicity assay used was the standard MTT assay and spectrophotometry was once again used to determine cell viability for the CEM-SS cell line. Growth curves were used to determine the optimal concentration of base formulation for human macrophage cells (THP-1 cell line)."}, "[8]": {"tested_on": "melanoma cells (UCT MeI 1 cell line) incubated with fungi", "settings": "0.2%"}, "[9]": {"settings": "Mycobacterium tuberculosis, H37RV, Minus MZL"}, "[10]": {"settings": "Mycobacterium tuberculosis, H37RV, Plus MZL"}}, "note": "“Also recorded” adds a separate entry of the source. Read-outs that look alike come from different tables or passages of the source."}
{"molecule": "CCN(CC)CCCC(C)Nc1ccnc2cc(Cl)ccc12", "note": "(centres unmarked) [Chloroquine]", "values": [{"measurement": "% Parasit", "setting": "[1]; 1 nM chloroquine", "result": 2.67, "unit": "%"}, {"measurement": "% Parasit", "setting": "[1]; 5 nM chloroquine", "result": 2.33, "unit": "%"}, {"measurement": "% Parasit", "setting": "[1]; 10 nM chloroquine", "result": 2.96, "unit": "%"}, {"measurement": "% Parasit", "setting": "[1]; 25 nM chloroquine", "result": 2.84, "unit": "%"}, {"measurement": "% Parasit", "setting": "[1]; 50 nM chloroquine", "result": 2.7, "unit": "%"}, {"measurement": "% Parasit", "setting": "[1]; 75 nM chloroquine", "result": 3.33, "unit": "%"}, {"measurement": "% Parasit", "setting": "[1]; 100 nM chloroquine", "result": 2.81, "unit": "%"}, {"measurement": "% Parasit", "setting": "[1]; 200 nM chloroquine", "result": 2.87, "unit": "%"}, {"measurement": "% Parasit", "setting": "[1]; 300 nM chloroquine", "result": 1.8, "unit": "%"}, {"measurement": "% Parasit", "setting": "[1]; 500 nM chloroquine", "result": 1.5, "unit": "%"}, {"measurement": "% Parasit", "setting": "[1]; 1000 nM chloroquine", "result": 1.4, "unit": "%"}, {"measurement": "IC50", "setting": "[2]", "result": "200 to 300", "unit": "nM"}]}
{"molecule": "CO[C@H]1/C=C/O[C@@]2(C)Oc3c(C)c(O)c4c(O)c(c(/C=N/N5CCN(C)CC5)c(O)c4c3C2=O)NC(=O)/C(C)=C\\C=C\\[C@H](C)[C@H](O)[C@@H](C)[C@@H](O)[C@@H](C)[C@H](OC(C)=O)[C@@H]1C", "note": "[Rifampicin]", "values": [{"measurement": "increase of coverage by the nanolipid delivery system", "setting": "[3]; female", "result": 180, "unit": "%"}, {"measurement": "total average increase in bioavailability by Nanolipid delivery system", "setting": "[3]; female", "result": 227, "unit": "%"}, {"measurement": "Tmax", "setting": "[3]; female, po", "result": 1, "unit": "h"}]}
{"molecule": "Povidone iodine", "values": [{"measurement": "inhibition of bacterial growth versus free active", "setting": "[4]", "result": "dramatically increased"}]}
{"molecule": "CC[C@@H](CO)NCCN[C@@H](CC)CO", "note": "[Ethambutol]", "values": [{"measurement": "inhibition maintained with MZL", "setting": "M. tuberculosis H37Rv; MZL treated, over the range of 0.03125 μg/ml-0.125 μg/ml Ethambutol", "result": "approx 50%"}, {"measurement": "MIC", "setting": "M. tuberculosis H37Rv; Mycobacterium tuberculosis, H37RV", "result": "~1", "unit": "µg/mL"}, {"measurement": "inhibition at 0.0325 µg/mL", "setting": "M. tuberculosis H37Rv; Mycobacterium tuberculosis, H37RV, Minus MZL, read-out: % Inhibition", "result": -21, "unit": "%"}, {"measurement": "inhibition at 0.0625 µg/mL", "setting": "M. tuberculosis H37Rv; [9]", "result": -16, "unit": "%"}, {"measurement": "inhibition at 0.125 µg/mL", "setting": "M. tuberculosis H37Rv; [9]", "result": -12, "unit": "%"}, {"measurement": "inhibition at 0.25 µg/mL", "setting": "M. tuberculosis H37Rv; [9]", "result": 51, "unit": "%"}, {"measurement": "inhibition at 0.5 µg/mL", "setting": "M. tuberculosis H37Rv; [9]", "result": 81, "unit": "%"}, {"measurement": "inhibition at 1 µg/mL", "setting": "M. tuberculosis H37Rv; [9]", "result": 92, "unit": "%"}, {"measurement": "inhibition at 0.0325 µg/mL", "setting": "M. tuberculosis H37Rv; [10]", "result": 48, "unit": "%"}, {"measurement": "inhibition at 0.0625 µg/mL", "setting": "M. tuberculosis H37Rv; [10]", "result": 49, "unit": "%"}, {"measurement": "inhibition at 0.125 µg/mL", "setting": "M. tuberculosis H37Rv; [10]", "result": 52, "unit": "%"}, {"measurement": "inhibition at 0.25 µg/mL", "setting": "M. tuberculosis H37Rv; [10]", "result": 51, "unit": "%"}, {"measurement": "inhibition at 0.5 µg/mL", "setting": "M. tuberculosis H37Rv; [10]", "result": 62, "unit": "%"}, {"measurement": "inhibition at 1 µg/mL", "setting": "M. tuberculosis H37Rv; [10]", "result": 86, "unit": "%"}]}
{"molecule": "NNC(=O)c1ccncc1", "note": "[INH, Isoniazid]", "values": [{"measurement": "bioavailability versus comparator Rifafour", "setting": "[3]", "result": "enhanced bioavailability"}]}
{"molecule": "NC(=O)c1cnccn1", "note": "[free Pyrazinamide, Pyrazinamide]", "values": [{"measurement": "BCG-viability", "setting": "[5]", "result": "68-72%"}, {"measurement": "bioavailability versus comparator Rifafour", "setting": "[3]", "result": "enhanced bioavailability"}]}
{"molecule": "[N-]=[N+]=O", "note": "[Nitrous oxide]", "values": [{"measurement": "solubility in water", "setting": "[6]", "result": "one liter of the gas dissolves in 1.5 liters of water"}]}
{"molecule": "Cc1cn([C@H]2C[C@H](N=[N+]=[N-])[C@@H](CO)O2)c(=O)[nH]c1=O", "note": "[free AZT, AZT]", "values": [{"measurement": "inhibition of viral growth and replication compared to the control", "setting": "[7]; 0.1 nM free AZT, by day 7 and 8", "result": 44, "unit": "%"}, {"measurement": "AZT concentration at which viral inhibition is optimal", "setting": "[7]; dilution of base-formulation 1:256", "result": "0.5 to 1", "unit": "nM"}]}
{"molecule": "Clc1ccc(COC(Cn2ccnc2)c2ccc(Cl)cc2Cl)c(Cl)c1", "note": "(centres unmarked) [Free Miconazole, Miconazole nitrate]", "values": [{"measurement": "presence of fungi", "setting": "[8]; 4 hours incubation", "result": "fungi were still present in large numbers"}, {"measurement": "viability / state of human melanoma cells", "setting": "[8]; 4 hours incubation with fungi, listed as free Miconazole nitrate", "result": "decline dramatically; also recorded: cells were no longer attached to the petri dish"}]}
